# What was measured:
# JAK1 = JAK1 (Homo sapiens (Human), UniProt P23458); assay: Biochemical JAK kinase assay (LanthaScreen), JAK1; conditions: for Ki: read-out: JAK1 pKi (converted)
# In short: (§1)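 LanthaScreen format: phospho-STAT1 (pTyr701) detected with 2 nM Tb antibody after 10 mM EDTA quench. Kinase step used Km-level ATP and 200 nM STAT1 peptide, 1 h at ambient after 1 h pre-incubation. Inhibition fitted to IC50, reported as pKi.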
# JAK2 = JAK2 (Homo sapiens (Human), UniProt O60674); assay: Biochemical JAK kinase assay (LanthaScreen), JAK2; conditions: for Ki: read-out: JAK2 pKi (converted)
# Chain of JAK2 (O60674 whole entry): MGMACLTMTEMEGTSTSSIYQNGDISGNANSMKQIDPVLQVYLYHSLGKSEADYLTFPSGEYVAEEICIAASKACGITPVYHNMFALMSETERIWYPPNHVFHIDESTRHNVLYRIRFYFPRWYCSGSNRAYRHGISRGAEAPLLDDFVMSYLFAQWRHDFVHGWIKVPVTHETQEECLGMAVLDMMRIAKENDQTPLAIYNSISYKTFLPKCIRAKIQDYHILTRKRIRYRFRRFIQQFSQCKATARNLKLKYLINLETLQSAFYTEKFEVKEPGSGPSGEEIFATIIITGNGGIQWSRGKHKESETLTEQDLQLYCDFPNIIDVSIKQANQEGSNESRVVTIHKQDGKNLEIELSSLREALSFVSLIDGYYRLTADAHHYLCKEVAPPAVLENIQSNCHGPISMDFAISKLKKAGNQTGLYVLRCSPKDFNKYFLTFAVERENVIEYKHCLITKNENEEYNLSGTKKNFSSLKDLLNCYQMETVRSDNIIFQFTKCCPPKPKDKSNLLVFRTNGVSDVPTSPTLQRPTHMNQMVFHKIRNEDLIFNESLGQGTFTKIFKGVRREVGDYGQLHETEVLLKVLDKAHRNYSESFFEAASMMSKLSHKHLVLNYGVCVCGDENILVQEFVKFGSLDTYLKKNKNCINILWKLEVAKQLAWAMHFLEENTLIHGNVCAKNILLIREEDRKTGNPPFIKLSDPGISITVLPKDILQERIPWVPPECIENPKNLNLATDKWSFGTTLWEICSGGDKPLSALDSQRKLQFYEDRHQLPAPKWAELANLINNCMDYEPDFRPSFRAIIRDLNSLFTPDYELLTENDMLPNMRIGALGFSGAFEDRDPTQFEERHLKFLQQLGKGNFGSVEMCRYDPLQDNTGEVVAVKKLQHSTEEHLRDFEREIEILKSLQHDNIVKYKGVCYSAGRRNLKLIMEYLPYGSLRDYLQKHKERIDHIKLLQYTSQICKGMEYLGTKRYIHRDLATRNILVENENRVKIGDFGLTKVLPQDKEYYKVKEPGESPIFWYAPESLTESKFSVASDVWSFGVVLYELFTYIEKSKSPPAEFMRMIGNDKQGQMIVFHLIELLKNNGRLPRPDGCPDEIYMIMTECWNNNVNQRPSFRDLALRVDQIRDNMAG
# In short: as §1
# [1] = test system: IL-13 induced STAT6 phosphorylation in BEAS-2B human lung epithelial cells; assay: Cellular JAKI potency assay (BEAS-2B); type: cell-based; conditions: Homo sapiens, BEAS-2B, BEAS-2B cells, read-out: BEAS2B pIC50 (converted)
# In short: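 AlphaLISA SureFire detection of Tyr641 pSTAT6 in lysates gave IC50s (4-parameter fit, expressed as pIC50). Cells: human BEAS-2B, exposed 1 h at 37 °C to compound dose series at 0.1% DMSO, then 30 min to IL-13 added at 80 ng/mL in HEPES-buffered HBSS with BSA.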
# Chain of JAK1 (P23458 whole entry): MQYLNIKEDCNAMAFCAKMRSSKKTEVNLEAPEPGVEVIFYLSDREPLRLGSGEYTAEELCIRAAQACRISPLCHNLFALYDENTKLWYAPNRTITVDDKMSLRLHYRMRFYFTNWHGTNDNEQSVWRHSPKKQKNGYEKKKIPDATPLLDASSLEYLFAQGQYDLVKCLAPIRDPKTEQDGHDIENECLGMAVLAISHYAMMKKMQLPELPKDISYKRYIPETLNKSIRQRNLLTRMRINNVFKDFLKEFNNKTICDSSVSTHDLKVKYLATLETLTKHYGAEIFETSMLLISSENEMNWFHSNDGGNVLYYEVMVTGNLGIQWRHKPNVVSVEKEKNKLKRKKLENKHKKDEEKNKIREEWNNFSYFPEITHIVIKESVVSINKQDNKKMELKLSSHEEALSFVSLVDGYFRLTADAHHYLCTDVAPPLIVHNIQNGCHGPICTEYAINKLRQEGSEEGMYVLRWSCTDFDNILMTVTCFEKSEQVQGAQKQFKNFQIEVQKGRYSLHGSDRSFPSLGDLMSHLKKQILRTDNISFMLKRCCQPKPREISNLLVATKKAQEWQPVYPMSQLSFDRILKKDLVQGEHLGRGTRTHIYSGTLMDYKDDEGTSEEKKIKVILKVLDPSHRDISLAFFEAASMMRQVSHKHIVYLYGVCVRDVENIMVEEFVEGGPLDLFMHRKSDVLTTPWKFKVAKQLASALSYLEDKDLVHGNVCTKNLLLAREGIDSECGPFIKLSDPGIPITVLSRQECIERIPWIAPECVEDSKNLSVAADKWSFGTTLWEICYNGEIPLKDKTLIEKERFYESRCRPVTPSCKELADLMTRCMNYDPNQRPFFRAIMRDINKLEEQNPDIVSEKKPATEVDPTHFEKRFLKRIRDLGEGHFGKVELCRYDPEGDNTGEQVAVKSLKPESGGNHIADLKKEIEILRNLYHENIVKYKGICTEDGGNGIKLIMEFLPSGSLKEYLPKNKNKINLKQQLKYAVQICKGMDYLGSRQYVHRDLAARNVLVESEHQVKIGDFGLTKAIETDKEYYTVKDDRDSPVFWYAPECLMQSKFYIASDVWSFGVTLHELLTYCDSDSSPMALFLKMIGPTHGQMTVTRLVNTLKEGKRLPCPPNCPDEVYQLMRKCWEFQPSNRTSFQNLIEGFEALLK
Structure (SMILES),Ki (JAK1) [nM],JAK2 pKi (JAK2),IC50 [1] [nM],Ki (JAK2) [nM],JAK1 pKi (JAK1)
CCc1cc(O)ccc1-c1ccc2c(-c3nc(C4=CCN(CCS(=O)(=O)NC)CC4)c[nH]3)n[nH]c2c1 [Example 80],0.1 to 1,A (A represents a pKi value ≥10 (Ki≤0.1 nM)),10 to 31.6,,
CCc1cc(O)ccc1-c1ccc2c(-c3nc(C4=CCN(C(=O)COCCN(C)C)C4)c[nH]3)n[nH]c2c1F [Example 374],0.1 to 1,A (A represents a pKi value ≥10 (Ki≤0.1 nM)),31.6 to 100,,
CCc1cc(O)ccc1-c1ccc2c(-c3nc(C4=CCN(CC5CNC(=O)O5)CC4)c[nH]3)n[nH]c2c1F (stereo not drawn) [Example 123],0.1 to 1,,31.6 to 100,0.1 to 1,
CCc1cc(O)ccc1-c1ccc2c(-c3nc(C4=CCN(C(=O)CCNCCOC)C4)c[nH]3)n[nH]c2c1F [Example 381],0.1 to 1,A (A represents a pKi value ≥10 (Ki≤0.1 nM)),31.6 to 100,,
CCc1cc(O)ccc1-c1ccc2c(-c3nc(C4=CCN(C(=O)NC)CC4)c[nH]3)n[nH]c2c1 [Example 150],0.1 to 1,,10 to 31.6,0.1 to 1,
CCc1cc(O)ccc1-c1ccc2c(-c3nc(C4=CCN(Cc5cn[nH]c5)CC4)c[nH]3)n[nH]c2c1 [Example 132],,A (A represents a pKi value ≥10 (Ki≤0.1 nM)),3.16 to 10,,A (A represents a pKi value ≥10 (Ki≤0.1 nM))
CCc1cc(O)ccc1-c1ccc2c(-c3nc(C4=CCN[C@@H](CO)C4)c[nH]3)n[nH]c2c1F [Example 347],,A (A represents a pKi value ≥10 (Ki≤0.1 nM)),31.6 to 100,,A (A represents a pKi value ≥10 (Ki≤0.1 nM))
CCc1cc(O)ccc1-c1ccc2c(-c3nc(C4=C[C@@H](C(=O)OC)NC4)c[nH]3)n[nH]c2c1F [Example 251],0.1 to 1,,10 to 31.6,0.1 to 1,
CCc1cc(O)ccc1-c1ccc2c(-c3nc(C4=C[C@@H](C)NCC4)c[nH]3)n[nH]c2c1F [Example 339],0.1 to 1,,10 to 31.6,0.1 to 1,
CCc1cc(O)ccc1-c1ccc2c(-c3nc(C4=C[C@@H](CC#N)NC4)c[nH]3)n[nH]c2c1F [Example 249],0.1 to 1,,10 to 31.6,0.1 to 1,
CCc1cc(O)ccc1-c1ccc2c(-c3nc(C4=CC[C@H](C)N(C(C)CO)C4)c[nH]3)n[nH]c2c1F (stereo partly drawn) [Example 259],0.1 to 1,,10 to 31.6,0.1 to 1,
CCc1cc(O)ccc1-c1ccc2c(-c3nc(C4=CCN[C@H](C)C4)c[nH]3)n[nH]c2c1F [Example 319],0.1 to 1,,10 to 31.6,0.1 to 1,
CCc1cc(O)ccc1-c1ccc2c(-c3nc(C4=C[C@H](CC#N)NC4)c[nH]3)n[nH]c2c1 [Example 243],,A (A represents a pKi value ≥10 (Ki≤0.1 nM)),3.16 to 10,,A (A represents a pKi value ≥10 (Ki≤0.1 nM))
CCc1cc(O)ccc1-c1ccc2c(-c3nc(C4=C[C@H](CO)NCC4)c[nH]3)n[nH]c2c1F [Example 348],0.1 to 1,A (A represents a pKi value ≥10 (Ki≤0.1 nM)),31.6 to 100,,
CCc1cc(O)ccc1-c1ccc2c(-c3nc(C4=CCNC(C(C)C)C4)c[nH]3)n[nH]c2c1F (stereo not drawn) [Example 368],0.1 to 1,,31.6 to 100,0.1 to 1,
CCc1cc(O)ccc1-c1ccc2c(-c3nc(C4=CC[C@H](C)N(CCCO)C4)c[nH]3)n[nH]c2c1F [Example 258],0.1 to 1,,10 to 31.6,0.1 to 1,
CCc1cc(O)ccc1-c1ccc2c(-c3nc(C4=CCN(CCS(=O)(=O)NC)C4)c[nH]3)n[nH]c2c1 [Example 96],0.1 to 1,A (A represents a pKi value ≥10 (Ki≤0.1 nM)),10 to 31.6,,
CCc1cc(O)ccc1-c1ccc2c(-c3nc(C4=CCN(CC5CC5)C4)c[nH]3)n[nH]c2c1F [Example 290],,A (A represents a pKi value ≥10 (Ki≤0.1 nM)),3.16 to 10,,A (A represents a pKi value ≥10 (Ki≤0.1 nM))
CCc1cc(O)ccc1-c1ccc2c(-c3nc(C4=CCCN(S(C)(=O)=O)C4)c[nH]3)n[nH]c2c1 [Example 160],0.1 to 1,,10 to 31.6,0.1 to 1,

Structure (SMILES),Ki (JAK1) [nM],JAK2 pKi (JAK2),IC50 [1] [nM],Ki (JAK2) [nM],JAK1 pKi (JAK1)
CCc1cc(O)ccc1-c1ccc2c(-c3nc(C4=CCN(Cc5ccn[nH]5)CC4)c[nH]3)n[nH]c2c1F [Example 137],0.1 to 1,,10 to 31.6,0.1 to 1,
CCc1cc(O)ccc1-c1ccc2c(-c3nc(C4=CCNC(C)(C)C4)c[nH]3)n[nH]c2c1 [Example 376],0.1 to 1,,31.6 to 100,0.1 to 1,
CCc1cc(O)ccc1-c1ccc2c(-c3nc(C4=CCN([C@H]5CC[C@](O)(C(F)(F)F)CC5)C4)c[nH]3)n[nH]c2c1F [Example 391],0.1 to 1,,100 to 316,0.1 to 1,
CCc1cc(O)ccc1-c1ccc2c(-c3nc(C4=CCCN(CCNS(C)(=O)=O)C4)c[nH]3)n[nH]c2c1F [Example 111],0.1 to 1,,10 to 31.6,0.1 to 1,
Oc1ccc(-c2ccc3c(-c4nc(C5=CCNC5)c[nH]4)n[nH]c3c2F)c(CC(F)(F)F)c1 [Example 357],0.1 to 1,,31.6 to 100,0.1 to 1,
CCc1cc(O)ccc1-c1ccc2c(-c3nc(C4=CCN(C5CCNC5=O)CC4)c[nH]3)n[nH]c2c1F (stereo not drawn) [Example 84],0.1 to 1,,31.6 to 100,0.1 to 1,
CCc1cc(O)ccc1-c1ccc2c(-c3nc(C4=CCN(CCCNS(=O)(=O)C(C)C)CC4)c[nH]3)n[nH]c2c1 [Example 105],,A (A represents a pKi value ≥10 (Ki≤0.1 nM)),10 to 31.6,,A (A represents a pKi value ≥10 (Ki≤0.1 nM))
CCc1cc(O)ccc1-c1ccc2c(-c3nc(C4=CCN(CCc5ccccc5)CC4)c[nH]3)n[nH]c2c1F [Example 135],1 to 10,,100 to 316,1 to 10,
CCc1cc(O)ccc1-c1ccc2c(-c3nc(C4=CCN(CCS(=O)(=O)NC)CC4)c[nH]3)n[nH]c2c1F [Example 85],0.1 to 1,,31.6 to 100,0.1 to 1,
CCc1cc(O)ccc1-c1ccc2c(-c3nc(C4=C[C@@H](CC(=O)OC)NC4)c[nH]3)n[nH]c2c1F [Example 254],0.1 to 1,,10 to 31.6,0.1 to 1,
CCc1cc(O)ccc1-c1ccc2c(-c3nc(C4=CCCN(C(=O)NC)C4)c[nH]3)n[nH]c2c1 [Example 162],0.1 to 1,,31.6 to 100,0.1 to 1,
CCc1cc(O)ccc1-c1ccc2c(-c3nc(C4=CCN(Cc5ccn[nH]5)C4)c[nH]3)n[nH]c2c1 [Example 143],,A (A represents a pKi value ≥10 (Ki≤0.1 nM)),10 to 31.6,,A (A represents a pKi value ≥10 (Ki≤0.1 nM))
CCCCN1CC=C(c2c[nH]c(-c3n[nH]c4c(F)c(-c5ccc(O)cc5CC)ccc34)n2)C1 [Example 316],,A (A represents a pKi value ≥10 (Ki≤0.1 nM)),10 to 31.6,,A (A represents a pKi value ≥10 (Ki≤0.1 nM))
CCc1cc(O)ccc1-c1ccc2c(-c3nc(C4=CCN(CCCOC)CC4)c[nH]3)n[nH]c2c1F [Example 59],0.1 to 1,,10 to 31.6,0.1 to 1,
CCc1cc(O)ccc1-c1ccc2c(-c3nc(C4=C[C@H](CC(=O)N(CC)CC)NC4)c[nH]3)n[nH]c2c1F [Example 340],,A (A represents a pKi value ≥10 (Ki≤0.1 nM)),10 to 31.6,,A (A represents a pKi value ≥10 (Ki≤0.1 nM))
CCc1cc(O)ccc1-c1ccc2c(-c3nc(C4=CCN(CCC5(O)CCC5)C4)c[nH]3)n[nH]c2c1F [Example 308],0.1 to 1,A (A represents a pKi value ≥10 (Ki≤0.1 nM)),10 to 31.6,,
CCc1cc(O)ccc1-c1ccc2c(-c3nc(C4=CC5COCC(C4)N5)c[nH]3)n[nH]c2c1F (stereo not drawn) [Example 228],0.1 to 1,,10 to 31.6,0.1 to 1,
CCc1cc(O)ccc1-c1ccc2c(-c3nc(C4=CCNCC4C)c[nH]3)n[nH]c2c1F (stereo not drawn) [Example 324],0.1 to 1,,10 to 31.6,0.1 to 1,
